The structures appear in SMILES notation.

The values below come from patent US20210015834A1, “NK-1 ANTAGONISTS FOR USE IN THE TREATMENT OF OCULAR PAIN” (priority 2018, published 2021).

For data set [1], the system named is mouse cornea nociception. The data set is described as follows: Measurement of cornea sensitivity, eye-wiping test (NaCl 5M). Format: in vivo, mice. The note with it: for MPE increase, overall: three experiments; for MPE (maximal possible effect): one 10 μl drop. The source says: 8 week-old C57BL6/N (Charles-River, Italy) and B6.Cg-Tac1^tm1Bbm/J (SP-KO mouse, Jackson) male mice were used in all experiments. Carbon dioxide inhalation and subsequent cervical dislocation were applied to euthanize the animals. All experimental protocols were approved by the Animal Care and Use Committee of the IRCCS San Raffaele Scientific Institute, in accordance with the ARVO Statement for the Use of Animals in Ophthalmic and Vision Research.
Mice 8-week-old C57BL6/N (Charles-River, Italy) and B6.Cg-Tac1^tm1Bbm/J (Jackson) corneal sensitivity was measured with the eye wiping test^36. Briefly, animals were placed individually in an empty cage for 5 min to get acclimatized; one drop (10 μl) of NaCl 5M was put into the right eye of the animal and eye wipings with the ipsilateral forepaw were counted for 30 s. Subsequently, a drop (10 μl) of Fosaprepitant (2, 10 and 50 mg/mL, powder was weighted and dissolved in PBS to reach the desired final concentration, Ivemend, Merck Sharp & Dohme B.V), PBS, Diclofenac (0.1%, Dicloftil, Farmingea) or Oxybuprocaine chloride (4 mg/ml, Novesina, Laboratoire Thea) was put on the same eye and left for 3 min. […] Three experiments were performed, each with 8 mice per group. In a sub-group of experiments, cornea sensitivity was tested 24 hours after 10 days of topical treatment (10 μl) with 2 mg/mL Fosaprepitant (6 times/day).
Anti-nociceptive effect was calculated as maximal possible effect (% MPE or MPE %) for each mouse according to the following formula:
% MPE=100×(post-treatment wipe count−pre-treatment wipe count)/(0−pre-treatment wipe count).
Unpaired t-test was used to evaluate the differences in nociception after different treatments. A p value <0.05 was considered to be statistically significant. The statistical software GraphPad Prism 5.0 (GraphPad Software, La Jolla, Calif.) was used for all analyses. All data were expressed as mean±standard error of the means (SEM). All methods were performed in accordance with the relevant guidelines and regulations.

Data set [2] relates to corneal sensitivity. The data set is described as follows: Corneal sensitivity, Cochet-Bonnet aesthesiometer, in a treated patient. It counts as in vivo, human. The source says:
(§1) One patient affected with Stage II (Foster) ocular cicatritial pemphigoid and intractable ocular pain was recruited on a compassionate trial of Fosaprepitant, upon administration and acceptance of informed consent, after consultation with the San Raffaele Hospital Ethics Committee. The patient reported the pain to be located on the ocular surface of both eyes and rated it 9/10 on the right eye and 2/10 on the left eye. Visual acuity was light perception in both eyes and the left eye presented a descemetocele. In the right eye the cornea presented diffuse punctate keratopathy, and conjunctival scarring. All the medications in use at time of enrollment were maintained. These included topical medications: tacrolimus 0.02% 3 times a day, dexamethasone phosphate twice a day, Timolol-brinzolamide drops twice a day, lubricants 6 times a day. In addition, the patient was taking systemic prednisone (25 mg); other systemic immunosuppressants had been previously tried to control the disease but had been suspended due to inefficacy or intolerance. In an unsuccessful attempt to control ocular pain, the prednisone dosage was raised up to 25 mg per day and the patient had been started 3 months before with opioid analgesic Tapentadol 50 mg bid and paracetamol 1000 mg tid. Only the right eye was treated. In this study, the patient received treatment with ocular Fosaprepitant 10 mg/mL (50 μl) 6 times/day for 30 days.
To test corneal sensitivity, a Cochet-Bonnet aesthesiometer (60 mm in length, 0.12 mm diameter) was used. The head of the subject was placed on the chinrest of the slit lamp, and the Cochet-Bonnet filament was neared the volunteer's eye with a perpendicular angle.
(§2) Different filament lengths were tried (starting from 60 mm, 5 mm intervals) until response, and noted. In order to quantify subjective ocular pain, the treated patient was asked to rate the pain felt in the treated eye on a scale from 0 (no pain) to 10 (worst possible pain) before and after the treatment^38.

Data set [3] has as its system ocular surface. The data set is described as follows: Gross signs of ocular surface toxicity in the human subject. It counts as in vivo. The note with it: topical Fosaprepitant 10 mg/ml 6 times a day for 30 days.
From the text: as §1, with “In this study, the patient received treatment with ocular Fosaprepitant 10 mg/mL (50 μl) 6 times/day for 30 days.” left out

Data set [4] concerns ocular pain. As to the kind of experiment: Subjective ocular pain score (0-10) in a treated patient. It counts as in vivo, human.
From the text: as §1, §2

For data set [5], the system named is cornea. The note with it: topical Fosaprepitant 10 mg/ml 6 times a day; cited from earlier work.
Data set [6] relates to ocular surface. The data set is described as follows: Gross signs of ocular surface toxicity in mice. The settings on record: topical Fosaprepitant.
The mark [7] stands for this setting: Fosaprepitant 10 mg/ml 6 times a day, after one month of treatment.

Consider `C[C@@H](O[C@H]1OCCN(Cc2nc(O)n(P(=O)(O)O)n2)[C@H]1c1ccc(F)cc1)c1cc(C(F)(F)F)cc(C(F)(F)F)c1` [Fosaprepitant, [3-{[(2R,3S)-2-[(1R)-1-[3,5-bis(trifluoromethyl)phenyl]ethoxy]-3-(4-fluorophenyl)morpholin-4-yl]methyl}-5-oxo-2H-1,2,4-triazol-1-yl]phosphonic acid], for which the “change of cornea sensitivity” value was −31.4% in data set [1] (Fosaprepitant 2 mg/ml 6 times a day for 10 days, compared to 10 days PBS instillation, p=0.0195) and −27.1% in data set [1] (Fosaprepitant 2 mg/ml, single shot vs 10 days treatment, p=0.0174). The “reduction of cornea sensitivity” value in data set [1] (Fosaprepitant 2 mg/ml one time, topical) was “did not significantly reduce cornea sensitivity”. The reduction of nociception in data set [1] (Fosaprepitant 10 mg/ml single administration vs PBS, p=0.029) is on record as −28.1%; in data set [1] (Fosaprepitant single administration, 10 mg/ml vs 2 mg/ml, p=0.0005), −23.1%. In addition, the “maximum possible analgesic effect (MPE)” value in data set [1] (Fosaprepitant 10 mg/ml topical, p=0.0006 vs PBS) worked out at 44.52%; in data set [1] (Fosaprepitant 50 mg/ml topical, p=0.0001 vs PBS) it was 52.62%. Besides, the “corneal pain measured as eye wiping counts vs placebo” value in data set [1] (Fosaprepitant 50 mg/ml administered once, 30 minutes after administration) is on record as “significantly reduces corneal pain”. The “MPE increase, overall” value in data set [1] (Fosaprepitant 50 mg/ml vs PBS, p<0.0001) came to 21.03 points. The “MPE (maximal possible effect)” value amounted to 48.4% in data set [1] (Fosaprepitant 50 mg/ml, first experiment, SD 14.6); 43.2% in data set [1] (Fosaprepitant 50 mg/ml, second experiment, SD 24.9); 44.2% in data set [1] (Fosaprepitant 50 mg/ml, third experiment, SD 16.6). The “lower effective concentration in reducing corneal pain” value in data set [1] (single administration) was found to be 10 mg/mL. Moreover, the “corneal sensitivity reduction, WT mice before vs after treatment” value in data set [1] (single administration of Fosaprepitant 10 mg/ml, p<0.0001) was −47.9. Also, in data set [2] (Fosaprepitant 10 mg/ml 6 times a day, 2 hours after the first instillation, baseline 60 mm), the “Cochet Bonnet aesthesiometry” value worked out at 50 mm. Also, the “Cochet Bonnet aesthesiometry, reduction” value in data set [2] (setting [7]) turned out to be 50%. In data set [2] (follow-up visit one month after study exit), this molecule came in with a corneal sensitivity of 60 mm. Moreover, the “signs of ocular surface toxicity” value in data set [3] and in data set [6] was “no gross signs of ocular surface toxicity” in each case. Further, in data set [4] (Fosaprepitant 10 mg/ml 6 times a day, 2 hours after the first instillation, baseline 9/10), the corneal pain score is given as 0/10. The pain score in data set [4] (setting [7]) is on record as 0/10; in data set [4] (follow-up visit one month after study exit, not constant) it was 1/10. For the same molecule, the “signs of toxicity to the cornea” value in data set [5] is reported as “did not show obvious signs of toxicity to the cornea”.

Regarding `CCCCOc1cc(C(=O)OCCN(CC)CC)ccc1N` [Oxybuprocaine], the “% MPE” value in data set [1] (Oxybuprocaine 4 mg/ml topical, p<0.0001 vs Fosaprepitant 10 mg/ml) was found to be 80.59%. Also, the “MPE difference, Oxybuprocaine higher than Fosaprepitant” value in data set [1] (Oxybuprocaine 4 mg/ml vs Fosaprepitant 50 mg/ml, p<0.0001) was 35.89 MPE points. Besides, the “MPE increase, overall” value in data set [1] (Oxybuprocaine 4 mg/ml vs PBS, p<0.0001) is 56.92 points. Also, the “corneal pain measured as eye wiping counts vs placebo and Fosaprepitant” value in data set [1] (Oxybuprocaine 4 mg/ml, topical) is “significantly reduces corneal pain”. Also, the “MPE (maximal possible effect)” value in data set [1] (oxybuprocaine chloride 4 mg/ml, first experiment, SD 9.7) worked out at 80.8%; in data set [1] (oxybuprocaine chloride 4 mg/ml, second experiment, SD 13.9), 84.1%; in data set [1] (oxybuprocaine chloride 4 mg/ml, third experiment, SD 10.9), 78.2%.

`O=C(O)Cc1ccccc1Nc1c(Cl)cccc1Cl` [Diclofenac]: the “% MPE” value in data set [1] (Diclofenac 0.1% topical, p=0.0029 vs Fosaprepitant 10 mg/ml) is 69.66%.
